# Changes are numbered by the printed parent chain.
# What was measured:
# CquiOrco = target: T1, CquiOrco (Culex quinquefasciatus, UniProt Q309I4); test: two-electrode voltage clamp, Xenopus oocytes; assay type: cell-based; conditions: agonist; coreceptor expressed alone; pH 7.6
# T1 sequence (Q309I4 1-480): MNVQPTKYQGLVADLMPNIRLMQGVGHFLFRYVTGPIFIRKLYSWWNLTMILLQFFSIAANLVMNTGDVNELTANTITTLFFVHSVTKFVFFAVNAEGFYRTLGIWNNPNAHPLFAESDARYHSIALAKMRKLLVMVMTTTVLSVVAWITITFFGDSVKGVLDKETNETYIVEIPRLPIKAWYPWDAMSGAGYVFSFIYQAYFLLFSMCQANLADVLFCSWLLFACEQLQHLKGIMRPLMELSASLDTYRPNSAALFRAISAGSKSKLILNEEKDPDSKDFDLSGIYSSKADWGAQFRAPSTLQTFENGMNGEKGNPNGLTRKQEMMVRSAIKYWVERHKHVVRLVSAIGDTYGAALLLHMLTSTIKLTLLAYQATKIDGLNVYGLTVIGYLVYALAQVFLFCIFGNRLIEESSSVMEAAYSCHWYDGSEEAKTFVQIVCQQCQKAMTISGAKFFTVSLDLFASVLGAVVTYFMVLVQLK
# CquiOR32/CquiOrco = target: T2, CquiOR32/CquiOrco (Culex quinquefasciatus, UniProt A0A0K0KUF8); test: two-electrode voltage clamp, Xenopus oocytes; assay type: cell-based; conditions: 1 mM source dose, -80 mV, pH 7.6
# T2 sequence (A0A0K0KUF8 1-397): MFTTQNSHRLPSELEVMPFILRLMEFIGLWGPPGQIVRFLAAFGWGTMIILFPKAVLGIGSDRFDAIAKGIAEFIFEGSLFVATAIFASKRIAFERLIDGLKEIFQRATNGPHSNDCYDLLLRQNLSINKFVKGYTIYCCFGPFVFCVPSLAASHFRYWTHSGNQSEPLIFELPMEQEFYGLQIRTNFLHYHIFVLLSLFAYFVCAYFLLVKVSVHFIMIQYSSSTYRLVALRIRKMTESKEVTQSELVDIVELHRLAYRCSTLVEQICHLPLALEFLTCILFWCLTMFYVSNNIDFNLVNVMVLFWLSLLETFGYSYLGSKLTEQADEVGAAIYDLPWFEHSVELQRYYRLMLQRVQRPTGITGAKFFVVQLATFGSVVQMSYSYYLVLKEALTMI
# T2 sequence (UPI0018E3CDA7 1-480 partner): T1 sequence (Q309I4 1-480) with K267E, V399I
structure (smiles),measurement,setting,value
"CCn1c(SCC(=O)Nc2ccc(C(C)C)cc2)nnc1-c1ccncc1 [OLC12, 2-{[4-Ethyl-5-(4-pyridinyl)-4H-1,2,4-triazol-3-yl]sulfanyl}-N-(4-isopropylphenyl)acetamide]","two-electrode voltage clamp, Xenopus oocytes",CquiOrco,CquiOrco-expressing oocytes generated inward currents when challenged with OLC12
CC12CCC(C1)C(C)(C)C2=O (stereo not drawn) [fenchone],"two-electrode voltage clamp, Xenopus oocytes","CquiOR32/CquiOrco; inhibitor, outward currents",more prominent than the outward currents elicited by fenchone and eucalyptol
COC(=O)c1ccccc1O [methyl salicylate],"two-electrode voltage clamp, Xenopus oocytes","CquiOR32/CquiOrco; agonist, inward currents",Methyl salicylate-elicited inward currents recorded with CquiOR32/CquiOrco-expressing oocytes

# Reference: article PMC10540603 (Biochemical and biophysical research communications, 2022)
